Measured values published in patent US6335366B2, “Naphthyloxy acetic acid derivatives and a pharmaceutical composition comprising them as an active ingredient” (Ono Pharmaceutical Co., Ltd., priority 1996, dated 2002).

Legend:
[1] = target: T1, prostanoide receptor subtype (mouse EP3α) (Mus musculus, UniProt P30557); test: Binding assay using expression cell of prostanoide receptor subtype ([3H]-PGE2 competition, CHO cell membrane fraction); settings: [3H]-PGE2 2.5 nM; membrane fraction of CHO cells expressing mouse EP3α; Ki = IC50/(1+([C]/Kd)); read-out: dissociation constant Ki
T1 construct: expressed in transfected cells; host or cells: CHO cells (membrane fraction)
T1 sequence (P30557 1-365): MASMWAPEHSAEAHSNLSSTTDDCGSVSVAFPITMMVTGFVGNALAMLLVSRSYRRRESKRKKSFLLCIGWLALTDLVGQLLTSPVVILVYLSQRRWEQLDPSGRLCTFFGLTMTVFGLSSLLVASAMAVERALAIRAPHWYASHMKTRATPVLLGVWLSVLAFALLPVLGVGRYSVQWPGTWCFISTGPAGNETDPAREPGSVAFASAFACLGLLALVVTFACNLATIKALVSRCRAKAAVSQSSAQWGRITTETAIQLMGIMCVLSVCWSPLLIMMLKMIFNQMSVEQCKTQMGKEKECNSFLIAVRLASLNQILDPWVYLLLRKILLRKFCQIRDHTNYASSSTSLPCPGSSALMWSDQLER
Description: For example, in standard laboratory test, the effects of the compounds of the present invention were confirmed by inhibitory effect on binding PGE2 using expression cell of receptor.
(I) Binding Assay using Expression Cell of Prostanoide Receptor Subtype
The preparation of membrane fraction was carried out according to the method of Sugimoto et al (J. Biol. Chem. 267, 6463-6466 (1992)), using expression CHO cell of prostanoide receptor subtype (mouse EP3α).
The standard assay mixture contained membrane fraction (0.5 mg/ml), [^3H]-PGE2 in a final volume of […] was incubated for 1 hour at room temperature. The reaction was terminated by addition of 3 ml of ice-cold buffer. The mixture was rapidly filtered through a glass filter (GF/B). The radioactivity associated with the filter was measured by liquid scintillation counting.
Kd and Bmax values were determined from Scatchard plots (Ann. N.Y. Acad. Sci., 51, 660 (1949)). Non-specific binding was calculated as the bond in the presence of an excess ([…]) of unlabeled PGE2. In the experiment for competition of specific [^3H]-PGE2 binding by the compounds of the present invention, [^3H]-PGE2 was added at a concentration of 2.5 nM and the compounds of the present invention were at a concentration of 1 mM. Buffer: 10 mM potassium phosphate (pH6.0), 1 mM EDTA, 10 mM MgCl2, 0.1 M NaCl.
The dissociation constant Ki (μM) of each compound was calculated by the following equation.

O=C(O)COc1cccc2c(CCS(=O)(=O)CC(O)COc3ccccc3)cccc12 (stereo not shown) [3(2), 2-{5-[2-(2RS-Hydroxy-3-phenoxypropylsulfonyl)ethyl]-1-naphthyloxy}acetic Acid] gave a Ki [1] of 0.0099 µM.

For O=C(O)COc1cccc2c(CCSC[C@H](O)COc3ccccc3)cccc12 [3(3), 2-{5-[2-(2R-Hydroxy-3-phenoxypropylthio)ethyl]-1-naphthyloxy}acetic Acid], the melting point was 114 to 115.5 °C.

O=C(O)COc1cccc2c(CCSCC(O)COc3ccccc3)cccc12 (stereo not drawn) [3(4), 2-{5-[2-(2S-Hydroxy-3-phenoxypropylthio)ethyl]-1-naphthyloxy}acetic Acid] gave a melting point of 114 to 115.5 °C.

Compound O=C(O)COc1cccc2c(CSCC(O)COc3ccccc3)cccc12 (stereo not shown) [3(5), 2-[5-(2RS-Hydroxy-3-phenoxypropylthio)methyl-1-naphthyloxy]acetic Acid] has a melting point of 105 to 107 °C.

Work on O=C(O)COc1cccc2c(C[S+]([O-])CC(O)COc3ccccc3)cccc12 (stereo not shown) [3(6), 2-[5-(2RS-Hydroxy-3-phenoxypropylsulfinyl)methyl-1-naphthyloxy]acetic Acid] yielded a Ki [1] of 0.15 µM.

O=C(O)COc1cccc2c(CS(=O)(=O)CC(O)COc3ccccc3)cccc12 (stereo not shown) [3(7), 2-[5-(2RS-Hydroxy-3-phenoxypropylsulfonyl)methyl-1-naphthyloxy]acetic Acid] gave a melting point of 186 to 190 °C.

For O=C(O)COc1cccc2c(CCCSCC(O)c3ccccc3)cccc12 (stereo not shown) [3(8), 2-{5-[3-(2RS-Hydroxy-2-phenylethylthio)propyl]-1-naphthyloxy}acetic Acid], the Ki [1] was 2 µM.

In the case of O=C(O)COc1cccc2c(CCCS(=O)(=O)/C=C/c3ccccc3)cccc12 [5(1), 2-[5-(3-Styrylsulfonylpropyl)-1-naphthyloxy]acetic Acid], the Ki [1] is reported as 0.0086 µM.

Compound O=C(O)COc1cccc2c(CCSCC(O)COc3ccccc3)cccc12 (stereo not shown) [compound 3] has a Ki [1] of 0.048 µM.

O=C(O)COc1cccc2c(CCC[S+]([O-])/C=C/c3ccccc3)cccc12 (stereo not shown) [compound 5] showed a Ki [1] of 0.08 µM.
